Measured values from ChEMBL document CHEMBL1136537, “The discovery of a new class of large-conductance Ca2+-activated K+ channel opener targeted for overactive bladder: synthesis and structure-activity relationships of 2-amino-4-azaindoles” (Bioorg Med Chem Lett, 2003).

Legend:
[1] = biological target: T1, Calcium-activated potassium channel subunit alpha-1 (Homo sapiens, UniProt Q12791); test: [86Rb+] efflux induced by BKca alpha subunits expressed in HEK293 cells at 10 uM; type: cell-based
[2] = biological target: T1, Calcium-activated potassium channel subunit alpha-1; test: BKca channel opening activity in HEK293 cells stably transfected with BKca alpha subunits at 10 uM concentration using a [86Rb+] efflux assay; type: cell-based
[3] = species: Sus scrofa; test: In vitro concentration to suppress electrically stimulated contraction in isolated Landrance pig bladder detrusor strips; type: functional
[4] = species: Sus scrofa; test: In vitro maximal efficacy in stable twitch response in isolated Landrace pig bladder detrusor strips relative to P-1075
[5] = biological target: T1, Calcium-activated potassium channel subunit alpha-1; test: BKca opening activity as outward current at 10 uM in HEK293 cells; type: cell-based

T1 sequence (Q12791 whole entry): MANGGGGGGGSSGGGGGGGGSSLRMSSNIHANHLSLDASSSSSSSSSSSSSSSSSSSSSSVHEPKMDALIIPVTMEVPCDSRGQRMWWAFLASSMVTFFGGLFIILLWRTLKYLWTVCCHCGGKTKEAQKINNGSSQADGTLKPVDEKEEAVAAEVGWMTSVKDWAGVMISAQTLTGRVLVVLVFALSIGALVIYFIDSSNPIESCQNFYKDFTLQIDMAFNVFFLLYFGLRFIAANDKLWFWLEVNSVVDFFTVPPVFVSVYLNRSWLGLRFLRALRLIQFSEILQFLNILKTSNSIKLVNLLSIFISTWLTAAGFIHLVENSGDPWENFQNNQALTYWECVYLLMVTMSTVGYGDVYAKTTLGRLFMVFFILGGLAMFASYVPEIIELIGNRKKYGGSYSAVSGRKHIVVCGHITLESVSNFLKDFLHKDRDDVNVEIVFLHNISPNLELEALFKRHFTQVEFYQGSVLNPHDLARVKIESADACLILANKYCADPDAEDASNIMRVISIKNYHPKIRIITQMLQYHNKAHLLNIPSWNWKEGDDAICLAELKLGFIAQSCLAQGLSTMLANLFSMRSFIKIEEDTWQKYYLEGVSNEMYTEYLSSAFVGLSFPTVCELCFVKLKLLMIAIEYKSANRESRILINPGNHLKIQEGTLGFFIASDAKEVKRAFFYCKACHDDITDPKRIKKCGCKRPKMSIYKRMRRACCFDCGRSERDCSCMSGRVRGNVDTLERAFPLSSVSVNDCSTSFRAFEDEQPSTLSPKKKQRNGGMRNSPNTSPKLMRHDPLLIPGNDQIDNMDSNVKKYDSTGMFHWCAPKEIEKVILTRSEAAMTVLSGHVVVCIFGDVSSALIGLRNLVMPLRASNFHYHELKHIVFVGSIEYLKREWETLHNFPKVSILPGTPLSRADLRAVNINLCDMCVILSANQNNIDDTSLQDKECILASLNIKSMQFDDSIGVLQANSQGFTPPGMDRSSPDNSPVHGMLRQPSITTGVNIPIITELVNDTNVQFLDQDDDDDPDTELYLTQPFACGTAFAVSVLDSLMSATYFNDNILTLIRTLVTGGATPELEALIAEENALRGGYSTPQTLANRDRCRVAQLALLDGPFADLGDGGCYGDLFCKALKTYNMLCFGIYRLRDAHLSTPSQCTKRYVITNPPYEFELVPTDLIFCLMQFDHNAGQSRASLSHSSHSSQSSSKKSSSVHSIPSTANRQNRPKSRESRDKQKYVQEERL

| SMILES | EC50 [1] | Response [2] [%] | EC50 [3] [µM] | Efficacy [4] [%] | Activity [5] [%] | Response [5] [%] |
| --- | --- | --- | --- | --- | --- | --- |
| N#Cc1c(O)[nH]c2cccnc12 | 13.4 µM | 65 | – | – | – | – |
| N#Cc1c(N2CCCCCCC2)[nH]c2cccnc12 | Not Active | 0 | – | – | – | – |
| N#Cc1c(N2CC3CCC(CC3)C2)[nH]c2cccnc12 | 4.43 µM | 74 | – | – | – | – |
| N#Cc1c(N2CCOCC2)[nH]c2cccnc12 | 3.86 µM | 62 | – | – | – | – |
| CN(C)c1[nH]c2cccnc2c1C#N | 5.13 µM | 60 | 23.5 | 58 | 75.5 | – |
| CN(C)CCN(C)c1[nH]c2cccnc2c1C#N | 6.75 µM | 63 | – | – | – | – |
| CN1CCN(c2[nH]c3cccnc3c2C#N)CC1 | Not Active | 0 | – | – | – | – |
| CCCN(CCO)c1[nH]c2cccnc2c1C#N | Not Active | 0 | – | – | – | – |
| N#Cc1c(N2CC=CC2)[nH]c2cccnc12 | Not Active | 0 | – | – | – | – |
| N#Cc1c(N2CCC3CCCCC3C2)[nH]c2cccnc12 (stereo unspecified) | Not Active | 0 | – | – | – | – |
| N#Cc1c(N2CCC[C@@H]2CO)[nH]c2cccnc12 | Not Active | 0 | – | – | – | – |
| N#Cc1c(NCc2ccccc2)[nH]c2cccnc12 | Not Active | 0 | – | – | – | – |
| N#Cc1c(N2CCC[C@H]2CO)[nH]c2cccnc12 | Not Active | 0 | – | – | – | – |
| CCN(CC)c1[nH]c2cccnc2c1C#N | 6.94 µM | 57 | – | – | – | – |
| N#Cc1c(Cl)[nH]c2cccnc12 | Not Active | 0 | – | – | – | – |
| N#Cc1c(N2CCCCCC2)[nH]c2cccnc12 | 3.34 µM | 61 | 25.9 | 63 | 105 | – |
| N#Cc1c(N2CCC(O)CC2)[nH]c2cccnc12 | 15.1 µM | 28 | – | – | – | – |
| CN1CCCN(c2[nH]c3cccnc3c2C#N)CC1 | Not Active | 0 | – | – | – | – |
| C[C@@H]1CC[C@@H](C)N1c1[nH]c2cccnc2c1C#N | Not Active | 0 | – | – | – | – |
| N#Cc1c(-n2ccnc2)[nH]c2cccnc12 | 5.86 µM | 62 | – | – | – | – |
| N#Cc1c(N2CCC[C@H](O)C2)[nH]c2cccnc12 | 5.07 µM | 65 | 9.26 | 31 | 108 | – |
| N#Cc1c(N2CCCCC2)[nH]c2cccnc12 | Not Active | 3.02 | 24.8 | 67 | – | – |
| N#Cc1c(Nc2ccccc2)[nH]c2cccnc12 | Not Active | 0 | – | – | – | – |
| COC(=O)C1CCN(c2[nH]c3cccnc3c2C#N)CC1 | 17 µM | 55 | – | – | – | – |
| N#Cc1c(N2CC[C@@H](O)C2)[nH]c2cccnc12 | Not Active | 0 | – | – | – | – |
| Cc1c(-c2ccccc2F)[nH]c(N)c1C#N | – | – | 63.1 | 93 | – | 21.7 |
| N#Cc1c(N2CCCC2)[nH]c2cccnc12 | 8.12 µM | 58 | – | – | – | – |
